Source: patent US20180282323A1, “Mesoionic imidazole derivatives as insecticides” (BAYER CROPSCIENCE AKTIENGESELLSCHAFT, priority 2015, published 2018)
Read-outs that look alike come from different tables or passages of the source.

Legend:
[1] = log P by HPLC on reversed-phase column (EEC directive 79/831 Annex V.A8); type: physicochemical; conditions: for log p a): HPLC on reversed-phase column
Description: a) The determination of the [M+H]^+ by LC-MS in the acidic range was effected at pH 2.7, with acetonitrile (containing 0.1% formic acid) and water as eluents; linear gradient from 10% acetonitrile to 95% acetonitrile, instrument: Agilent 1100 LC system, Agilent MSD system, HTS PAL.
The log P values reported in the tables and preparation examples above were determined in accordance with EEC directive 79/831 Annex V.A8 by HPLC (High Performance Liquid Chromatography) using a reversed-phase column (C18). Temperature 43° C.

[2] = tested on: Myzus persicae; test: Myzus persicae oral test; type: in vivo; conditions: application rate 20 ppm, oral uptake through parafilm, after 5 days; for pest or weed control at 20 ppm: Myzus persicae, 120 h, read-out: efficacy
Description: Myzus persicae—Oral Test Solvent: 100 parts by weight of acetone
To produce an appropriate active ingredient formulation, 1 part by weight of active ingredient is dissolved with the stated parts by weight of solvent and made up with water until the desired concentration is attained.
50 μl of the active ingredient formulation are transferred into microtitre plates and made up to a final volume of 200 μl with 150 μl of IPL41 insect medium (33%+15% sugar). Subsequently, the plates are sealed with parafilm, which a mixed population of green peach aphids (Myzus persicae) within a second microtitre plate is able to puncture and imbibe the solution through it.
After 5 days, the efficacy in % is determined. 100% means that all the aphids have been killed; 0% means that no aphids have been killed.

[3] = HPLC on reversed-phase column (footnote a)
[4] = reversed-phase C18 HPLC column, pH 2.7, HPLC on reversed-phase column (footnote a), read-out: log p
[5] = reversed-phase C18 HPLC column, HPLC-MS, reversed-phase C18, 43° C., calibration with alkan-2-ones, read-out: log P

Row | Compound | log p a) [1] | efficacy [2] | log p [1, 3] | other results
1 | Cc1ccc[n+]2c(C(=O)NC3CC3)c([O-])n(C(C)c3ccc(Cl)nc3)c12 (racemic) [Example I-1-257] | 1.52 | 100% | – | –
2 | Cc1ccc[n+]2c(C(=O)NC3CC3)c([O-])n(C(C)c3ccc(Cl)nc3)c12 (racemic) [Example I-1-259] | 1.96 | 90% | – | –
3 | Cc1ccc[n+]2c(C(=O)Nc3c(F)cccc3F)c([O-])n(C(C)c3ccc(Cl)nc3)c12 (racemic) [Example I-1-275] | 2.67 | 100% | – | –
4 | O=C(CCl)c1c([O-])n(Cc2ccc(Cl)nc2)c2cccc[n+]12 [Example I-1-001] | – | 100% | 1.62 | –
5 | O=C(COc1cccnc1)c1c([O-])n(Cc2ccc(Cl)nc2)c2cccc[n+]12 [Example I-1-006] | – | 100% | 0.93 | –
6 | O=C(Cn1ccc(Cl)n1)c1c([O-])n(Cc2cnc(Cl)s2)c2cccc[n+]12 [Example I-1-011] | – | 100% | 2.03 | –
7 | O=C(COc1cccnc1)c1c([O-])n(Cc2cnc(Cl)s2)c2cccc[n+]12 [Example I-1-018] | – | 100% | 1 | –
8 | O=C(CSc1ccccc1)c1c([O-])n(Cc2cnc(Cl)s2)c2cccc[n+]12 [Example I-1-025] | – | 100% | 2.67 | –
9 | O=C(COc1ccc(F)cc1)c1c([O-])n(Cc2ccc(Cl)nc2)c2cccc[n+]12 [Example I-1-031] | – | 100% | 2.27 | –
10 | O=C(C[S+]([O-])Cc1ccccc1)c1c([O-])n(Cc2cnc(Cl)s2)c2cccc[n+]12 (centres unmarked) [Example I-1-035] | – | 100% | 1.72 | –
11 | CC(C)[S+]([O-])CC(=O)c1c([O-])n(Cc2cnc(Cl)s2)c2cccc[n+]12 (centres unmarked) [Example I-1-038] | – | 100% | 1.32 | –
12 | C[S+]([O-])CC(=O)c1c([O-])n(Cc2cnc(Cl)s2)c2cccc[n+]12 (centres unmarked) [Example I-1-039] | – | 100% | 1.08 | –
13 | CCN(CC(=O)c1c([O-])n(Cc2cnc(Cl)s2)c2cccc[n+]12)C(C)=O [Example I-1-040, 3-(N-Acetyl-N-ethylglycyl)-1-[(2-chloro-1,3-thiazol-5-yl)methyl]-1H-imidazo[1,2-a]pyridin-4-ium-2-olate] | – | – | – | chromatographic logP [1, 4]: 1.49; chromatographic logP [1, 5]: 1.49; pest or weed control at 20 ppm [2]: 100%
14 | CCS(=O)(=O)CC(=O)c1c([O-])n(Cc2cnc(Cl)s2)c2cccc[n+]12 [Example I-1-042, 1-[(2-chloro-1,3-thiazol-5-yl)methyl]-3-[(ethylsulphonyl)acetyl]-1H-imidazo[1,2-a]pyridin-4-ium-2-olate] | – | – | – | chromatographic logP [1, 4]: 1.38; chromatographic logP [1, 5]: 1.38; pest or weed control at 20 ppm [2]: 100%
15 | N#Cc1ccn(CC(=O)c2c([O-])n(Cc3cnc(Cl)s3)c3cccc[n+]23)n1 [Example I-1-047] | – | 100% | 1.83 | –
16 | O=C(Cn1cnc(C(F)(F)F)c1)c1c([O-])n(Cc2cnc(Cl)s2)c2cccc[n+]12 [Example I-1-051] | – | 100% | 2 | –
17 | CSc1ccn(CC(=O)c2c([O-])n(Cc3cnc(Cl)s3)c3cccc[n+]23)n1 [Example I-1-052] | – | 100% | 1.94 | –
18 | O=C(CNCc1ccccc1)c1c([O-])n(Cc2cnc(Cl)s2)c2cccc[n+]12 [Example I-1-053] | – | 90% | 1 | –
19 | O=C(COCc1ccc(F)cc1)c1c([O-])n(Cc2cnc(Cl)s2)c2cccc[n+]12 [Example I-1-055] | – | 100% | 2.41 | –
20 | O=C(Cn1ccc(C(F)(F)F)n1)c1c([O-])n(Cc2cnc(Cl)s2)c2cccc[n+]12 [Example I-1-057] | – | 90% | 2.44 | –
21 | O=C(COCc1ccccc1)c1c([O-])n(Cc2cncnc2)c2cccc[n+]12 [Example I-1-059] | – | 100% | 1.44 | –
22 | N#Cc1cnn(CC(=O)c2c([O-])n(Cc3ccc(Cl)nc3)c3cccc[n+]23)c1 [Example I-1-060] | – | 100% | 1.55 | –
23 | O=C(Cn1ccnn1)c1c([O-])n(Cc2cnc(Cl)s2)c2cccc[n+]12 [Example I-1-064] | – | 100% | 1.18 | –

Row | Compound | log p a) [1] | efficacy [2] | log p [1, 3] | other results
24 | N#Cc1cnn(CC(=O)c2c([O-])n(Cc3cncnc3)c3cccc[n+]23)c1 [Example I-1-065] | – | 100% | 0.73 | –
25 | O=C(Cn1cccn1)c1c([O-])n(Cc2cncnc2)c2cccc[n+]12 [Example I-1-066] | – | 90% | 0.56 | –
26 | CCN(CC(=O)c1c([O-])n(Cc2ccc(Cl)nc2)c2cccc[n+]12)C(C)=O [Example I-1-071] | – | 90% | 1.4 | –
27 | COC(=O)COCC(=O)c1c([O-])n(Cc2cnc(Cl)s2)c2cccc[n+]12 [Example I-1-075] | – | 100% | 1.41 | –
28 | CSCC(=O)c1c([O-])n(Cc2cncnc2)c2cccc[n+]12 [Example I-1-077] | – | 100% | 0.79 | –
29 | O=C(COc1ccccc1Cl)c1c([O-])n(Cc2cnc(Cl)s2)c2cccc[n+]12 [Example I-1-078] | – | 90% | 2.77 | –
30 | CCOCC(=O)c1c([O-])n(Cc2ccc(Cl)nc2)c2cc(C(F)(F)F)cc[n+]12 [Example I-1-079] | – | 90% | 2.17 | –
31 | O=C(Nc1nccs1)c1c([O-])n(Cc2cnc(Cl)s2)c2cccc[n+]12 [Example I-1-318] | 2.05 | – | – | –
32 | O=C(Nc1ncccc1[N+](=O)[O-])c1c([O-])n(Cc2cnc(Cl)s2)c2cccc[n+]12 [Example I-1-320] | 1.91 | – | – | –
33 | Cc1cccc(F)c1NC(=O)c1c([O-])n(Cc2cnc(Cl)s2)c2cccc[n+]12 [Example I-1-322] | 3.1 | – | – | –
34 | O=C(Nc1nccs1)c1c([O-])n(Cc2ccc(Cl)nc2)c2cccc[n+]12 [Example I-1-324] | 1.93 | – | – | –
35 | Cc1cnc(NC(=O)c2c([O-])n(Cc3ccc(Cl)nc3)c3cccc[n+]23)s1 [Example I-1-327] | 2.17 | – | – | –
36 | COc1cc(NC(=O)c2c([O-])n(Cc3ccc(Cl)nc3)c3cccc[n+]23)ccn1 [Example I-1-329] | 1.41 | – | – | –
37 | Cn1nccc1NC(=O)c1c([O-])n(Cc2cnc(Cl)s2)c2cccc[n+]12 [Example I-1-330] | 1.6 | – | – | –
38 | O=C(Nc1c(Cl)ncnc1Cl)c1c([O-])n(Cc2cnc(Cl)s2)c2cccc[n+]12 [Example I-1-331] | 2.17 | – | – | –
39 | Cn1ncc(Br)c1NC(=O)c1c([O-])n(Cc2cnc(Cl)s2)c2cccc[n+]12 [Example I-1-332] | 1.99 | – | – | –
40 | O=C(Nc1cnccc1Cl)c1c([O-])n(Cc2cnc(Cl)s2)c2cccc[n+]12 [Example I-1-334] | 1.81 | – | – | –
41 | O=C(Nc1ncccc1Br)c1c([O-])n(Cc2cnc(Cl)s2)c2cccc[n+]12 [Example I-1-335] | 1.58 | – | – | –
42 | O=C(Nc1ncccc1C(F)(F)F)c1c([O-])n(Cc2cnc(Cl)s2)c2cccc[n+]12 [Example I-1-336] | 1.99 | – | – | –
43 | Cc1cccnc1NC(=O)c1c([O-])n(Cc2cnc(Cl)s2)c2cccc[n+]12 [Example I-1-337] | 0.91 | – | – | –
44 | O=C(Nc1ncns1)c1c([O-])n(Cc2cnc(Cl)s2)c2cccc[n+]12 [Example I-1-338] | 1.98 | – | – | –
45 | Clc1ccc(CNc2ncccn2)cn1 [N-[(6-chloropyridin-3-yl)methyl]pyrimidin-2-amine] | – | – | – | chromatographic logP [1]: 1.36
